Like-named read-outs stand apart in the source and are kept apart here.
Assays:
[1] = molecular target: LCK (Homo sapiens (Human), UniProt P06239); test: Kinase screening assay (IC50)
[2] = molecular target: BLK (Homo sapiens (Human), UniProt P51451); test: Kinase screening assay (IC50)
[3] = molecular target: CYP1A2 (Homo sapiens (Human), UniProt P05177); test: in vitro
[4] = molecular target: PDGFRa (Homo sapiens (Human), UniProt P16234); test: Kinase screening assay (IC50); type: biochemical
[5] = molecular target: FGR (Homo sapiens (Human), UniProt P09769); test: Kinase screening assay (IC50)
[6] = molecular target: CYP3A4 (Homo sapiens (Human), UniProt P08684); test: CYP P450 inhibition
[7] = molecular target: CYP2C9 (Homo sapiens (Human), UniProt P11712); test: CYP P450 inhibition
[8] = molecular target: YES (Homo sapiens (Human), UniProt P07947); test: Kinase screening assay (IC50)
[9] = molecular target: LYN (Homo sapiens (Human), UniProt P07948); test: Kinase screening assay (IC50)
[10] = molecular target: mTOR (Homo sapiens (Human), UniProt P42345); test: Kinase screening assay (IC50); type: biochemical
[11] = molecular target: CYP2C19 (Homo sapiens (Human), UniProt P33261); test: CYP P450 inhibition
[12] = molecular target: FRK/PTK5 (Homo sapiens (Human), UniProt P42685); test: Kinase screening assay (IC50)
[13] = molecular target: hERG channel (Homo sapiens (Human), UniProt Q12809); test: hERG Safety Assay, Ionworks high-throughput electrophysiology
[14] = molecular target: CYP2D6 (Homo sapiens (Human), UniProt P10635); test: CYP P450 inhibition
[15] = human, serum
[16] = molecular target: RET (Homo sapiens (Human), UniProt P07949); test: Kinase screening assay (IC50)
[17] = rat, serum
[18] = molecular target: FYN (Homo sapiens (Human), UniProt P06241); test: Kinase screening assay (IC50)
[19] = molecular target: HCK (Homo sapiens (Human), UniProt P08631); test: Kinase screening assay (IC50)
[20] = Liver microsome stability; type: in vitro ADME; conditions: % of unmodified drug after 30 min incubation with liver microsomes
[21] = molecular target: KIT (Homo sapiens (Human), UniProt P10721); test: Kinase screening assay (IC50)
[22] = Stability in mouse plasma; type: in vitro ADME; conditions: % of unmodified drug after 120 min in plasma
[23] = Stability in human plasma; type: in vitro ADME; conditions: % of unmodified drug after 120 min in plasma
[24] = tested on: MCF7 cells; test: Cell viability assay (PrestoBlue); type: cell-based; conditions: Homo sapiens, MCF7, 120 h; cell viability at day 5; read-out: Antiproliferative activity (EC50) MCF7
[25] = tested on: MDA-MB-231 cells; test: Cell viability assay (PrestoBlue); type: cell-based; conditions: Homo sapiens, MDA-MB-231, 120 h, read-out: Antiproliferative activity (EC50) MDA-MB-231; cell viability at day 5
[26] = tested on: SYF fibroblasts (deficient for Src, Yes, and Fyn); test: Cell viability assay (PrestoBlue); type: cell-based, murine; conditions: Mus musculus, Fibroblast, 120 h; cell viability at day 5; read-out: Antiproliferative activity (EC50) SYF (−/− Src)
[27] = Stability in rat plasma; conditions: % of unmodified drug after 120 min in plasma
[28] = PBS, aqueous buffer
[29] = molecular target: SRC (Homo sapiens (Human), UniProt P12931); test: Kinase screening assay (IC50); type: biochemical; conditions: for IC50: 10 μM ATP, read-out: Target inhibition (IC50) SRC
[30] = molecular target: ABL (Homo sapiens (Human), UniProt P00519); test: Kinase screening assay (IC50); type: biochemical
[31] = read-out: Kinase Screening (IC50) LCK, Src Family
[32] = read-out: Target inhibition (IC50) LCK, 10 μM ATP
[33] = read-out: Kinase Screening (IC50) BLK, Src Family
[34] = read-out: Target inhibition (IC50) BLK, 10 μM ATP
[35] = 10 μM ATP, read-out: Target inhibition (IC50) PDGFRa
[36] = read-out: Kinase Screening (IC50) PDGFRa
[37] = read-out: Kinase Screening (IC50) FGR, Src Family
[38] = read-out: Target inhibition (IC50) FGR, 10 μM ATP
[39] = read-out: Target inhibition (IC50) YES, 10 μM ATP
[40] = read-out: Kinase Screening (IC50) LYN, Src Family
[41] = read-out: Target inhibition (IC50) LYN, 10 μM ATP
[42] = 10 μM ATP, read-out: Target inhibition (IC50) mTOR
[43] = read-out: Kinase Screening (IC50) mTOR
[44] = read-out: Kinase Screening (IC50) FRK, Src Family
[45] = read-out: Target inhibition (IC50) FRK/PTK5, 10 μM ATP
[46] = read-out: Kinase Screening (IC50) RET
[47] = read-out: Target inhibition (IC50) RET, 10 μM ATP
[48] = read-out: Kinase Screening (IC50) FYN, Src Family
[49] = read-out: Target inhibition (IC50) FYN, 10 μM ATP
[50] = read-out: Kinase Screening (IC50) HCK, Src Family
[51] = read-out: Target inhibition (IC50) HCK, 10 μM ATP
[52] = read-out: Kinase Screening (IC50) c-KIT
[53] = read-out: Target inhibition (IC50) KIT, 10 μM ATP
[54] = 10 μM ATP, read-out: Target inhibition (IC50) ABL

Sequence of KIT (P10721 26-976): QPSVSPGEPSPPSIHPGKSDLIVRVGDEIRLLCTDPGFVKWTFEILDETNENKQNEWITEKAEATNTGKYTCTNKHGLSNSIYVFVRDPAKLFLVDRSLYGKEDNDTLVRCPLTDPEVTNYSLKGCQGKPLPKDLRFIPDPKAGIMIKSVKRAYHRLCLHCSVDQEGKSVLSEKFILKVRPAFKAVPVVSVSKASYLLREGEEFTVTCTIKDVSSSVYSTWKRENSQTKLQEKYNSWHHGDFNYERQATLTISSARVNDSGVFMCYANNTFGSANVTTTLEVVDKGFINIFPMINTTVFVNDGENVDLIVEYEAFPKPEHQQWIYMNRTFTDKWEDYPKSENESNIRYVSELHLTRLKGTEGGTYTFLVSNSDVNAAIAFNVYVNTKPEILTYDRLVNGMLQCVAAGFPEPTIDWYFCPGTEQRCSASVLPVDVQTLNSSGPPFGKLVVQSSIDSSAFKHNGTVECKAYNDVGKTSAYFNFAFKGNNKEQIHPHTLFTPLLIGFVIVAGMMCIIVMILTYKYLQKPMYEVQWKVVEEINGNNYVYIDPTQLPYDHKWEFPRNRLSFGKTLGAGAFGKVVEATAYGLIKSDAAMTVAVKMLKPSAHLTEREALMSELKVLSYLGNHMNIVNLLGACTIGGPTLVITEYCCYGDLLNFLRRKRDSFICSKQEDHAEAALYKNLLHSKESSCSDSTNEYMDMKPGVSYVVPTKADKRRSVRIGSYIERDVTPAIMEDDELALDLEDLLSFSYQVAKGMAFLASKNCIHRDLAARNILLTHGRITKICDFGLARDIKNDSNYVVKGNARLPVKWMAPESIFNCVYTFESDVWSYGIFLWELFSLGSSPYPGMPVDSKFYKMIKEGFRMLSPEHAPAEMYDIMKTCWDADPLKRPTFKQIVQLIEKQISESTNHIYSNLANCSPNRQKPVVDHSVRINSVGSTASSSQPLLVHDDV
Sequence of ABL (P00519 whole entry): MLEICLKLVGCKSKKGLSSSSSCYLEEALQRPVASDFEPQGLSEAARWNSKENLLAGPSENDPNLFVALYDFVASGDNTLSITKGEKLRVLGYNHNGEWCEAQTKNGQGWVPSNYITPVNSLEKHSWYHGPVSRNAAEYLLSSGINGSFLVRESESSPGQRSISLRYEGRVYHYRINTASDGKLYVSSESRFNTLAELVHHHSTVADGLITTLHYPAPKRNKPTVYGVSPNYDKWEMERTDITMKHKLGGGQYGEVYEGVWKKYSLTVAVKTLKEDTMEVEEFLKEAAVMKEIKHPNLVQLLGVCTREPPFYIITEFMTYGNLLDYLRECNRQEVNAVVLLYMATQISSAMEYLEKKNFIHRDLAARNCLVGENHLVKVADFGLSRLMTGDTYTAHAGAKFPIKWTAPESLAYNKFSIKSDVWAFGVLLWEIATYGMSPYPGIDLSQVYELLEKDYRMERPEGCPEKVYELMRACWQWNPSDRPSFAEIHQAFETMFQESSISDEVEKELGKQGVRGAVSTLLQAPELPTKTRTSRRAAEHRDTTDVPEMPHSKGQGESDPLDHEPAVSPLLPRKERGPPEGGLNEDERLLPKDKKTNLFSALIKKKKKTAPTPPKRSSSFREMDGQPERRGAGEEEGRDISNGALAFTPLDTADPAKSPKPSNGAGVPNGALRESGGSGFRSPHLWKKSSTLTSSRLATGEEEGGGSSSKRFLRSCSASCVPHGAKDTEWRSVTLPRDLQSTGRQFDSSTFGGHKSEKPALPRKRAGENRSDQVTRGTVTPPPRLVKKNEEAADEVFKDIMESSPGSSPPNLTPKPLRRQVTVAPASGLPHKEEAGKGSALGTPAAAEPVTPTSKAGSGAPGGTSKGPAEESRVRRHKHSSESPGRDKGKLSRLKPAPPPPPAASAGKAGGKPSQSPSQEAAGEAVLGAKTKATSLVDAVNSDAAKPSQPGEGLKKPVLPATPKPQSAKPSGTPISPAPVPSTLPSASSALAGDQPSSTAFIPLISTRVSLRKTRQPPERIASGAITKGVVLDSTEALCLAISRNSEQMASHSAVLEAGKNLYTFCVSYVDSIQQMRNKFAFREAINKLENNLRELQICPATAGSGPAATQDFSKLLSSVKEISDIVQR
Sequence of LYN (P07948 whole entry): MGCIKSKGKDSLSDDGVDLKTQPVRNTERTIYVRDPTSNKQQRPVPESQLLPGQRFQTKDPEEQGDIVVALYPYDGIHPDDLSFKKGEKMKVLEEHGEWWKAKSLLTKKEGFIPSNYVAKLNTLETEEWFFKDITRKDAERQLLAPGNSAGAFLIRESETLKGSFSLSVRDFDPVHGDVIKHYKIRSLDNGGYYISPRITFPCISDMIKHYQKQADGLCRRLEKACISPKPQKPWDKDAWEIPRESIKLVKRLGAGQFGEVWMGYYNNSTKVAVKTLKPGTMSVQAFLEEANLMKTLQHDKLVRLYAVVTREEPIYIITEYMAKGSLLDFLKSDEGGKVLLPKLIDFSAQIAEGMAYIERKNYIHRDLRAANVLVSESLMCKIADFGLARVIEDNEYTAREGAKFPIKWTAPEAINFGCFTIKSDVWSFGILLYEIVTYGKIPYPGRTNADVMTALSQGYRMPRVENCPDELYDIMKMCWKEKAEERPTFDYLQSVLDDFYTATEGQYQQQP
Sequence of FRK/PTK5 (P42685 whole entry): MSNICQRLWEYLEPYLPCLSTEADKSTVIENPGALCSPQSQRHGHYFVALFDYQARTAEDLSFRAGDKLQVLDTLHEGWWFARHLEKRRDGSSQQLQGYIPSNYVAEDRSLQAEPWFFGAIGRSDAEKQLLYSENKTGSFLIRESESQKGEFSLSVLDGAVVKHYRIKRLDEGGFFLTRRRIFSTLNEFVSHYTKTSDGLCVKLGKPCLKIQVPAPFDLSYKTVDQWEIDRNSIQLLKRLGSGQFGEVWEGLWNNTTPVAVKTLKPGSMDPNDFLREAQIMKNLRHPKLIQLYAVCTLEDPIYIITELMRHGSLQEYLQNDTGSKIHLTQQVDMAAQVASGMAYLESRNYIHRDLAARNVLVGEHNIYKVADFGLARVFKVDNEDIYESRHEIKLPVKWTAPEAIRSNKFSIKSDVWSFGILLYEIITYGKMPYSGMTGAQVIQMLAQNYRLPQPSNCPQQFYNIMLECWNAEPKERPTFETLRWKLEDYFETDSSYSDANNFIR
Sequence of hERG channel (Q12809 whole entry): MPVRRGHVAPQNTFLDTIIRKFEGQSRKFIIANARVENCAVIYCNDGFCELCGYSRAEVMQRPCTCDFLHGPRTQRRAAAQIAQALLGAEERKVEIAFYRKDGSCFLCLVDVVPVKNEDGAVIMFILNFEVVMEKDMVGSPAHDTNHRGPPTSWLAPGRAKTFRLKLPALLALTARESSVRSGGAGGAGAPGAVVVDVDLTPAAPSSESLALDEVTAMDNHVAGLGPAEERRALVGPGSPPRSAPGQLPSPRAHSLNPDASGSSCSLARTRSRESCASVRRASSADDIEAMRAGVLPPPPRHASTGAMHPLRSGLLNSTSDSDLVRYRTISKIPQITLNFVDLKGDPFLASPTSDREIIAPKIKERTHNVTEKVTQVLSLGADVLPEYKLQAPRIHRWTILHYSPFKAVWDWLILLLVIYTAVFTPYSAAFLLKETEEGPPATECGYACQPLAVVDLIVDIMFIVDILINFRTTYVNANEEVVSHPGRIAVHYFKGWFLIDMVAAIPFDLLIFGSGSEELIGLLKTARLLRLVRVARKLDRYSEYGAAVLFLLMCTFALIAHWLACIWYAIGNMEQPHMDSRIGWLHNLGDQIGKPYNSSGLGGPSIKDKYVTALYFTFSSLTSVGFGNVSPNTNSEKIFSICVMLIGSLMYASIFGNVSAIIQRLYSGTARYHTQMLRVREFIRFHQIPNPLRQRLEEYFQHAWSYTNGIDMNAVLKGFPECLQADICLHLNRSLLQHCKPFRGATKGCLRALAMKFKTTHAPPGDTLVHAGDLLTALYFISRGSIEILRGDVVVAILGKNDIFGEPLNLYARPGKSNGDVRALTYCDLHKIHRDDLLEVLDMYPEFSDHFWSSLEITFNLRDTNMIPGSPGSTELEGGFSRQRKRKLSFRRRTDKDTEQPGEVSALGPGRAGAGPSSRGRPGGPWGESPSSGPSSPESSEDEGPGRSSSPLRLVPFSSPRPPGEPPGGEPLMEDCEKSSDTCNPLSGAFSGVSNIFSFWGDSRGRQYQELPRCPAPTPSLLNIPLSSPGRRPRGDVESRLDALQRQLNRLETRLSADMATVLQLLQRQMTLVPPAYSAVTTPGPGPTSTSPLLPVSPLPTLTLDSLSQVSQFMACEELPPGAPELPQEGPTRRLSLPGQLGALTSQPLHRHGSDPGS
Sequence of YES (P07947 whole entry): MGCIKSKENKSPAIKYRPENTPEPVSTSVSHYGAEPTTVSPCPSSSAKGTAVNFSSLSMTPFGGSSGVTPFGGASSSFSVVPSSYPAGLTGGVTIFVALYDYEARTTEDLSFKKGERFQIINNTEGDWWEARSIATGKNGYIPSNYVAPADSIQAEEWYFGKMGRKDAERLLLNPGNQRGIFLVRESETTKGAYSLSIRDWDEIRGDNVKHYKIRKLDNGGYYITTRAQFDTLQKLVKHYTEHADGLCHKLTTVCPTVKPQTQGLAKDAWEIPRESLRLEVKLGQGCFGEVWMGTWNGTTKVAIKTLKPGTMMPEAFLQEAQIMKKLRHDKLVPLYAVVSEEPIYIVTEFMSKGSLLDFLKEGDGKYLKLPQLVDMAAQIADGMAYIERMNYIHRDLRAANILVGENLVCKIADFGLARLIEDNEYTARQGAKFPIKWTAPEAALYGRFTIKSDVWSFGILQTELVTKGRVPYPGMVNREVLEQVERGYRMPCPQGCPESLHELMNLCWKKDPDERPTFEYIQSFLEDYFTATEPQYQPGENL

| SMILES | IC50 [1, 31] [nM] | IC50 [1, 32] [nM] | IC50 [2, 34] [nM] | IC50 [4, 35] [nM] | IC50 [4, 36] [nM] | IC50 [5, 37] [nM] | IC50 [5, 38] [nM] | IC50 [8, 39] [nM] | IC50 [9, 40] [nM] | IC50 [9, 41] [nM] | IC50 [10, 42] [nM] | IC50 [10, 43] [nM] | IC50 [12, 45] [nM] | IC50 [13] [µM] | fraction unbound [15] | IC50 [16, 46] [nM] | IC50 [16, 47] [nM] | IC50 [18, 48] [nM] | IC50 [18, 49] [nM] | IC50 [21, 53] [nM] | also measured |
| --- | --- | --- | --- | --- | --- | --- | --- | --- | --- | --- | --- | --- | --- | --- | --- | --- | --- | --- | --- | --- | --- |
| COc1cc(-c2nn(CCN3CCC(N4CCCC4)CC3)c3ncnc(N)c23)ccc1NC(=O)OC(C)(C)C [Compound 518, tert-butyl N-[4-[4-amino-1-[2-(4-pyrrolidin-1-yl-1-piperidyl)ethyl]pyrazolo[3,4-d]pyrimidin-3-yl]-2-methoxy-phenyl]carbamate] | < 10 | < 10 | < 10 | > 1000 | > 1000 | < 10 | < 10 | < 10 | < 10 | < 10 | > 1000 | > 1000 | < 10 | 20.1 | 0.172 | > 1000 | > 1000 | < 10 | < 10 | > 1000 | IC50 [2, 33]: < 10 nM; inhibition at 10 µM [3]: 6.9%; inhibition at 10 µM [6]: -29.8%; inhibition at 10 µM [7]: -92.3%; IC50 ([8]; read-out: Kinase Screening (IC50) YES, Src Family): < 10 nM; inhibition at 10 µM [11]: -6.5%; IC50 [12, 44]: < 10 nM; inhibition at 10 µM [14]: 6.7%; fraction unbound [17]: 0.134; IC50 [19, 50]: < 10 nM; IC50 [19, 51]: < 10 nM; 30 min Liver Microsome stability [20]: 87.0%; IC50 [21, 52]: > 1000 nM |
| CC1CC(OC(=O)C(O)c2ccccc2)CC(C)(C)N1C (centres unmarked) [Eucatropine, reference compound] | – | – | – | – | – | – | – | – | – | – | – | – | – | – | – | – | – | – | – | – | Stability in mouse plasma [22]: 20.3%; Stability in human plasma [23]: 10.5% |
| COc1cc(-c2nn(CCN3CCC(N4CCCCC4)CC3)c3ncnc(N)c23)ccc1NC(=O)OC(C)(C)C [Compound 519, tert-butyl N-[4-[4-amino-1-[2-[4-(1-piperidyl)-1-piperidyl]ethyl]pyrazolo[3,4-d]pyrimidin-3-yl]-2-methoxy-phenyl]carbamate] | < 10 | < 10 | < 10 | > 1000 | > 1000 | < 10 | < 10 | – | < 10 | < 10 | > 1000 | > 1000 | < 10 | 12.6 | 0.143 | > 1000 | > 1000 | < 10 | < 10 | > 1000 | IC50 [2, 33]: < 10 nM; inhibition at 10 µM [3]: -1.6%; inhibition at 10 µM [6]: -12.1%; inhibition at 10 µM [7]: -70.3%; inhibition at 10 µM [11]: -3.1%; IC50 [12, 44]: < 10 nM; inhibition at 10 µM [14]: 3%; fraction unbound [17]: 0.106; IC50 [19, 50]: < 10 nM; IC50 [19, 51]: < 10 nM; IC50 [21, 52]: > 1000 nM |
| COc1cc(-c2nn(CCN3CCC(N(C)C)CC3)c3ncnc(N)c23)ccc1NC(=O)CCc1ccccc1 [Compound 531, N-[4-[4-amino-1-[2-[4-(dimethylamino)-1-piperidyl]ethyl]pyrazolo[3,4-d]pyrimidin-3-yl]-2-methoxy-phenyl]-3-phenyl-propanamide] | – | – | – | – | – | – | – | – | – | – | – | – | – | – | – | – | – | – | – | – | EC50 [24]: 1 to 10 µM; EC50 [25]: > 10 µM; EC50 [26]: > 10 µM |
| CN(C)C1CCN(CCn2nc(-c3ccc(CC(=O)OC(C)(C)C)cc3)c3c(N)ncnc32)CC1 [Compound 553, tert-butyl 2-[4-[4-amino-1-[2-[4-(dimethylamino)-1-piperidyl]ethyl]pyrazolo[3,4-d]pyrimidin-3-yl]phenyl]acetate] | < 10 | < 10 | – | > 1000 | > 1000 | < 10 | < 10 | – | < 10 | < 10 | > 1000 | > 1000 | – | 12.6 | – | > 1000 | > 1000 | < 10 | < 10 | > 1000 | Stability in mouse plasma [22]: 70.4%; Stability in human plasma [23]: 98.3%; Stability in rat plasma [27]: 68.2%; IC50 [21, 52]: > 1000 nM |
| Cc1nc(Nc2ncc(C(=O)Nc3c(C)cccc3Cl)s2)cc(N2CCN(CCO)CC2)n1 [Dasatinib, reference compound] | – | – | – | – | – | – | – | – | – | – | – | – | – | – | 0.06 | – | – | – | – | – | solubility [28]: < 100 µg/mL |
| COc1ccc([C@@H]2Sc3ccccc3N(CCN(C)C)C(=O)[C@@H]2OC(C)=O)cc1 [Diltiazem, reference compound] | – | – | – | – | – | – | – | – | – | – | – | – | – | – | – | – | – | – | – | – | Stability in rat plasma [27]: 21.5% |
| COc1cc(-c2nn(CCN3CCC(CN(C)C)CC3)c3ncnc(N)c23)ccc1NC(=O)OC(C)(C)C [Compound 503, tert-butyl N-[4-[4-amino-1-[2-[4-(dimethylaminomethyl)-1-piperidyl]ethyl]pyrazolo[3,4-d]pyrimidin-3-yl]-2-methoxy-phenyl]carbamate] | – | < 10 | < 10 | > 1000 | – | – | < 10 | < 10 | – | < 10 | > 1000 | – | < 10 | – | – | – | > 1000 | – | < 10 | > 1000 | IC50 ([4]; recombinant kinase, read-out: IC50 PDGFRα): > 10000 nM; potency (IC50) against Src, in words [29]: sub-nano molar; IC50 [29]: < 10 nM; IC50 [8]: < 0.5 nM; potency (IC50) against Yes, in words [8]: sub-nano molar; IC50 ([10]; recombinant kinase, read-out: IC50 mTOR): > 10000 nM; IC50 [16]: > 10000 nM; IC50 [18]: 4.6 nM; IC50 [19, 51]: < 10 nM; IC50 [21]: 7130 nM; IC50 [30, 54]: 100 to 1000 nM; IC50 ([30]; recombinant kinase, read-out: IC50 Abl): 189 nM |
| COc1cc(-c2nn(CCN3CCC(N(C)C)CC3)c3ncnc(N)c23)ccc1Cc1ncc(C)o1 [Compound 584, 1-[2-[4-(dimethylamino)-1-piperidyl]ethyl]-3-[3-methoxy-4-[(5-methyloxazol-2-yl)methyl]phenyl]pyrazolo[3,4-d]pyrimidin-4-amine] | – | < 10 | – | > 1000 | – | – | < 10 | < 10 | – | – | > 1000 | – | – | – | – | – | > 1000 | – | – | > 1000 | IC50 [29]: 10 to 100 nM; IC50 [18]: 100 to 1000 nM; IC50 [30, 54]: > 1000 nM |
| CN(C)C1CCN(CCn2nc(-c3ccc(NC(=O)OC(C)(C)C)cc3)c3c(N)ncnc32)CC1 [Compound 543] | – | – | – | > 1000 | – | – | < 10 | < 10 | – | – | > 1000 | – | – | – | – | – | > 1000 | – | – | > 1000 | IC50 [1]: 10 to 100 nM; IC50 [29]: 10 to 100 nM; IC50 [18]: 100 to 1000 nM; IC50 [30, 54]: > 1000 nM |

Source: patent US10294227B2, “Compounds” (UNIVERSITY COURT OF THE UNIVERSITY OF EDINBURGH, priority 2015, dated 2019)
